The source of these data is PMC12196235, “Enhancing the Pharmacological Properties of Triterpenes Through Acetylation: An Anticancer and Antioxidant Perspective” (Molecules, 2025).

The test system of series [1] is HSV-1/Blue (Herpes simplex virus type 1 ACV-resistant strain). The following applies: ref 15; read-out: antiviral EC50 (HSV-1/Blue); cited from earlier work.
For series [2], the system named is HeLa, KB, MCF-7, A-549, PC-3 and SKOV-3. Description: MTT assay, summary over the cancer cell lines. In kind it is cell-based, human. The following applies: classification by IC50 (good ≤ 10 μM, moderate 10–30 μM, ref 83). The protocol:
(§1) All the cell lines and mediums were obtained from the American Type Culture Collection (ATCC) supplied by LGC-Standards (Lomianki, Poland). Human cancer cell lines were cultured as follows: HeLa (human cervix carcinoma) and KB (human oral squamous carcinoma) lines were cultured in DMEM (Dulbecco’s Modified Eagle’s Medium); MCF-7 (human breast carcinoma) and A-549 (human lung carcinoma) were cultured in RPMI 1640 medium; PC-3 (human prostate carcinoma) was cultured in F-12K medium; SKOV-3 (human ovarian cystadenocarcinoma) was cultured in McCoy’s modified medium; HDF (human normal dermal fibroblasts) was cultured in Fibroblast Basal Medium. Each medium was supplemented with 10% fetal bovine serum, 1% L- glutamine and 1% penicillin/streptomycin solution. The cell lines were kept in an incubator at 37 °C.
(§2) All the tested cell lines (HeLa, KB, MCF-7, A-549, PC-3, SKOV-3 and HDF) were subjected to MTT assay. In short, this assay is based on the reaction between mitochondria enzymes (dehydrogenases) of tested cell lines and 3-(4,5-dimethylthiazol-2-yl)-2,5-diphenyltetrazolium bromide (MTT). The final product of this reaction gives violet formazan crystals. The number of live cells is proportional to the amount of formazan and is represented by the violet dye reagent. The details of the experiments are given in [19].

The test system of series [3] is KB-VIN (multidrug resistant human epidermoid carcinoma). The following applies: ref 104; cited from earlier work.
In series [4] the test system is SKOV-3 (human ovarian carcinoma). Conditions: MTT assay, data published earlier, read-out: IC50 (±SD), SKOV-3; cited from earlier work.
Series [5] relates to KB (human oral squamous carcinoma). The following applies: ref 104; cited from earlier work.
Series [6] has as its system HT-29 (human colorectal adenocarcinoma). Conditions: ref 105; read-out: IC50 (HT-29); cited from earlier work.
Series [7] can be described thus: DPPH antioxidant assay. Conditions: calculated from Trolox standard curve. The protocol: (§3) The results are presented as % inhibition of the copper(II) ions and Trolox equivalent calculated from the standard curve (Figure 9) and as % inhibition of the DPPH radical and Trolox equivalent, calculated from the standard curve (Figure 10).
(§4) The CUPRAC reagent (7.5 mM ethanolic 96% neocuproine solution, 10 mM CuCl2 × H2O solution and an ammonium acetate buffer of pH 7.0) and DPPH reagent (2,2-diphenyl-1-picrylhydrazyl 0.2 mM solution) were applied.
(§5) The CUPRAC method measures the reducing power of a sample by quantifying its ability to convert the Cu-neocuproine reagent complex to the Cu(I) form. In contrast, the DPPH assay relies on the ability of an antioxidant to donate a hydrogen atom or an electron to the stable DPPH radical, resulting in its reduction and subsequent color change. The results are presented as % inhibition of the copper(II) ions and Trolox equivalent calculated from the standard curve (Figure 9) and as % inhibition of the DPPH radical and Trolox equivalent, calculated from the standard curve (Figure 10). The spectroscopic detection in CUPRAC and DPPH assays was conducted with Synergy H1 Multi-Mode Microplate Reader (BioTek Instruments, Inc., Winooski, VT, USA). The details of the experiments are given in [102].

Series [8] concerns Salmonella typhi. Conditions: ref 16; cited from earlier work.
Series [9] relates to Hep-G2 (human hepatocellular carcinoma). Conditions: cited from earlier work.
The subject of series [10] is B16-F10 (murine melanoma). Conditions: cited from earlier work.
The test system of series [11] is HDF (human dermal fibroblasts). Conditions: MTT assay, normal dermal fibroblasts; data published earlier; read-out: IC50 (±SD), HDF; cited from earlier work.
The subject of series [12] is HSV-1/106 (Herpes simplex virus type 1 ACV-resistant strain). The following applies: ref 15; read-out: antiviral EC50 (HSV-1/106); cited from earlier work.
For series [13], the system named is HCT-116 (human colorectal carcinoma). Conditions: ref 20; cited from earlier work.
Series [14] in a line: CUPRAC antioxidant assay. Conditions: calculated from Trolox standard curve. The method, then:
as §3, §4, §5

Series [15] relates to A-549 (human lung carcinoma). Conditions: cited from earlier work.
The subject of series [16] is Staphylococcus aureus. The following applies: ref 16; cited from earlier work.
The subject of series [17] is J774A.1 (macrophage-like cell line). The following applies: ref 106; cited from earlier work.
Series [18] concerns Escherichia coli. Conditions: ref 16; cited from earlier work.
Series [19] concerns HSV-1/153 (Herpes simplex virus type 1 ACV-resistant strain). The following applies: ref 15; read-out: antiviral EC50 (HSV-1/153); cited from earlier work.
The subject of series [20] is RAW 264.7. The following applies: ref 106; cited from earlier work.
Series [21] concerns MCF-7 (human breast carcinoma). Description: MTT assay, MCF-7. The following applies: IC50 HDF / IC50 MCF-7. It is filed as cell-based. The method, then: as §1, §2
The test system of series [22] is MCF-7 (human breast carcinoma). Conditions: MTT assay, data published earlier, read-out: IC50 (±SD), MCF-7; cited from earlier work.
For series [23], the system named is HeLa (human cervical epithelioid carcinoma). Kind of series: MTT assay, HeLa. It is filed as cell-based. Conditions: IC50 HDF / IC50 HeLa. The method, then:
as §1, §2

For series [24] the test system is unchanged. The following applies: MTT assay, data published earlier, read-out: IC50 (±SD), HeLa; cited from earlier work.
The test system of series [25] is MDA MB-231 (human epithelial adenocarcinoma). Details: method as in doi:10.1002/slct.201803101. Conditions: ref 56; read-out: anticancer IC50 (MDA MB-231); cited from earlier work.
The subject of series [26] is HeLa (human cervical epithelioid carcinoma). The following applies: ref 56; read-out: anticancer IC50 (HeLa); cited from earlier work.
Series [27] has as its system SKOV-3 (human ovarian carcinoma). Description: MTT assay, SKOV-3. It is filed as cell-based. The protocol:
as §1, §2

For series [28], the system named is HDF (human dermal fibroblasts). Kind of series: MTT assay, normal HDF. It is filed as cell-based. Conditions: Homo sapiens, Fibroblast, read-out: IC50 (±SD), HDF. The protocol: as §1, §2
The test system of series [29] is KB (human oral squamous carcinoma). Description: MTT assay, KB. The following applies: IC50 HDF / IC50 KB. In kind it is cell-based. The method, then: as §1, §2
Series [30] deals with PC-3 (human prostate carcinoma). Kind of series: MTT assay, PC-3. In kind it is cell-based. The method, then:
as §1, §2

Series [31] has as its system KB (human oral squamous carcinoma). The following applies: MTT assay, data published earlier; cited from earlier work.
Series [32] deals with MCF-7 (human breast carcinoma). The following applies: ref 55; read-out: anticancer IC50 (MCF-7); cited from earlier work.
The test system of series [33] is A-549 (human lung carcinoma). Kind of series: MTT assay, A-549. It is filed as cell-based. The following applies: IC50 HDF / IC50 A-549. The method, then:
as §1, §2

For series [34], the system named is A-549 (human lung carcinoma). Conditions: MTT assay, data published earlier, read-out: IC50 (±SD), A-549; cited from earlier work.

“And” between values parts separate entries of the source, which are not always exact repeats. Equal values may be shown once. Read-outs that look alike come from different tables or passages of the source. A value given as a limit tells only on which side of the number the result lay.

For `CC1(C)CC[C@]2(C(=O)O)CC[C@]3(C)C(=CC[C@@H]4[C@@]5(C)CC[C@H](O)C(C)(C)[C@@H]5CC[C@]43C)[C@@H]2C1` [1a, oleanolic acid], the EC50 in series [1] was 13.1 µM; in series [12] it was 12.9 µM; in series [19] it was 13.1 µM. The “cytotoxic activity class” value in series [2] was “high or moderately high activity”. Also, the half-maximal inhibitory concentration (IC50) in series [3] was over 10 µM; in [4], 18.8 µM; in series [5] it was over 10 µM; in series [6] it was 430 µM; in [9] (ref 18, 19, read-out: anticancer IC50 (Hep-G2)) it was 16.2 µM; in series [9] (ref 105, read-out: IC50 (Hep-G2)), 212 µM. The IC50 in series [10] (ref 105) was 106 µM; in series [10] (ref 107), 106 µM; in series [11], 24.9 µM; in series [15] (ref 104, read-out: IC50 (A-549)), 6.4 µM; in series [17], 35.2 µM; in [20], 41.7 µM. Moreover, in [7], the “Trolox Equivalent, DPPH Assay” value is reported as 0.02633 ± 0.00109 mg/mL. Moreover, the “antibacterial MBC (Salmonella typhi)” value in series [8] was 300 µg/mL. Moreover, the “antibacterial MIC (S. typhi)” value in series [8] is 65 µg/mL. In addition, the “anticancer IC50 (HCT-116)” value in [13] is “anticancer: IC50 = 40 µg × mL^−1 (HCT-116)”. The “Trolox Equivalent, CUPRAC Assay” value in series [14] is given as 0.1031 ± 0.00684 mg/mL. For the same molecule, the “antibacterial MBC (Staphylococcus aureus)” value in series [16] was 700 µg/mL. Further, the “antibacterial MIC (S. aureus)” value in series [16] was 95 µg/mL. Further, the “antibacterial MBC (Escherichia coli)” value in [18] is 900 µg/mL. In addition, in series [18], the “antibacterial MIC (E. coli)” value was 95 µg/mL.
On to `C=C(C)[C@@H]1CC[C@]2(C)CC[C@]3(C)[C@H](CC[C@@H]4[C@@]5(C)CC[C@H](O)C(C)(C)[C@@H]5CC[C@]43C)[C@@H]12` [6a, lupeol], for which the “Selectivity index (SI), MCF-7” value in series [21] came out at 0.56. Moreover, the IC50 in [22] was 51.8 µM; in series [24] it was 37.7 µM; in series [25] it was 46.1 µM; in [26], 31.9 µM; in series [27] (Homo sapiens, SK-OV-3, MTT assay, SKOV-3, read-out: IC50 (±SD), SKOV-3) it was 14.6 µM; in [28] it was 29 µM. The IC50 in series [30] (Homo sapiens, MTT assay, PC-3, read-out: IC50 (±SD), PC-3) was 14.5 µM; in [31] it was 51.2 µM; in series [15] (ref 56, read-out: anticancer IC50 (A-549)), 64.8 µM; in series [32], 80 µM; in series [34], 45.7 µM. The “Selectivity index (SI), HeLa” value in series [23] was found to be 0.77. Moreover, the “Selectivity index (SI), SKOV-3” value in [27] (IC50 HDF / IC50 SKOV-3) was determined as 1.99. Further, in series [29], the “Selectivity index (SI), KB” value amounted to 0.57. In addition, the “Selectivity index (SI), PC-3” value in series [30] (IC50 HDF / IC50 PC-3) was found to be 2.00. In addition, in series [14], the “Trolox Equivalent, CUPRAC Assay” value was 0.136 mg/mL and 0.136 ± 0.00593 mg/mL. Moreover, in series [33], the “Selectivity index (SI), A-549” value is reported as 0.63.
